Reference: patent publication US11351129B2, “Systems and methods for treating vitiligo” (Transdermal Biotechnology, Inc., priority 2016, dated 2022)

System: vitiligo depigmented area of skin
Test: Two month study of topically applied sodium pyruvate in subjects with vitiligo (photographs, DSMII Colorimeter erythema and melanin, clinical evaluations)
Format: in vivo, human
Conditions: for average erythema colorimetric measurement: DSMII Colorimeter, 0.2% phase
Description: Subjects were 18 years of age and older. A medical history form and this consent statement were provided to them to read, review, and complete. They had no other systemic or dermatological disease present that would interfere with the integrity of this study. Subjects were in good health as determined by the medical history. After all their questions were answered and they decided to participate in the study they were asked to sign the informed consent statement. 5 subjects were studied as follows:
Subjects were dispensed two (2) tubes of test products. One was labeled HNC 180-100-A (0.05%) and the other labeled as HNC 180-100-B (0.1%). Subjects were instructed to use these products sparingly and make applications twice daily, morning, and evening. Applications were made only to the areas designated for treatment.
The sodium pyruvate dosage was increased to 0.2% after the initial eight week study was completed. Subjects were dispensed HNC-180-12 for this phase.
This was a two (2) month study that involved five (5) subjects. Test sessions lasted approximately ½ hour per visit. There were […] scheduled visits. The first was on Day 1 (Baseline), and then at 1, 2, 4, 6 and 8 weeks.
At the end of the 8 weeks all subjects were invited to continue for further study. Four of the subjects elected to continue.
Prior to any study procedures being performed subjects were given an informed consent statement to read, review, and sign. A body map assessment of the vitiligo depigmented area was made and the target areas of treatment were photographed for the baseline record. Colorimetric measurements of the skin were done employing a DSMII Colorimeter. This instrument produced a read-out of erythema and melanin based on the light absorption characteristics of human skin. Subjects reported to the clinic for additional photographs, colorimeter measurements, and clinical evaluations at each scheduled visit.

SMILES: CC(=O)C(=O)[O-].[Na+] [sodium pyruvate]
- increase in pigment in vitiliginous areas, subjects showing it (5 subjects with vitiligo, topical, twice daily, 0.05% and 0.1% for 8 weeks, then 0.2%): 4 out of the 5
- irritation (concentration of sodium pyruvate increased to 0.2% after 8 weeks, topical): increased irritation
- appearance of vitiligo (topically applied): effective in reducing the appearance of vitiligo
- average erythema colorimetric measurement (week 12): 15.80 arbitrary units
- average erythema colorimetric measurement (week 16): 15.71 arbitrary units
